Results reported in ChEMBL document CHEMBL5113413, “New peptidomimetic rhodesain inhibitors with improved selectivity towards human cathepsins” (Eur J Med Chem, 2022).
Activity calls are given as the source filed them. The rule behind the calls is not given here.

Experiments:
Procathepsin L [1] = target: T1, Procathepsin L (Homo sapiens, UniProt P07711); assay: Irreversible inhibition of human Cathepsin L assessed as inhibition constant using Cbz-Phe-Arg-AMC as fluorogenic substrate by fluorometric assay
Target sequence in this assay (P07711 whole entry): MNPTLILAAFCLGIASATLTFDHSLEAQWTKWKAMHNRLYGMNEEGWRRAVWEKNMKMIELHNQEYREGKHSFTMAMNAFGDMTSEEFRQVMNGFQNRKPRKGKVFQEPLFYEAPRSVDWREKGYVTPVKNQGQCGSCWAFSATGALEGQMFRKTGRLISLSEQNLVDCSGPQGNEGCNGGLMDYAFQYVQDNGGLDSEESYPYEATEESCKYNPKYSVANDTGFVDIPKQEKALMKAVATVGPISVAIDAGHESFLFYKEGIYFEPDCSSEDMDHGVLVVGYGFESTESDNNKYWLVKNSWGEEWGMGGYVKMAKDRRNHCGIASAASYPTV

Rhodesain = Rhodesain (Trypanosoma brucei rhodesiense, UniProt Q95PM0); assay: Irreversible inhibition of Trypanosoma brucei rhodesiense rhodesain assessed as inhibition constant using Cbz-Phe-Arg-AMC as fluorogenic substrate by fluorometric assay
[2] = target: T2, 20S proteasome (Homo sapiens) (UniProt P49721+P20618+P28074+P28062+P28065+P28072+P25786+P25787+P25788+P25789+P28066+P60900+O14818+Q8TAA3+P40306+A5LHX3+P49720+P28070+Q99436); assay: Inhibition of human 20S proteasome chymotrypsin-like activity at 11 uM using Succ-Leu-Leu-Val-Tyr-AMC as fluorogenic substrate by fluorometric assay; type: protein-complex assay
Procathepsin L [3] = target: T1, Procathepsin L; assay: Irreversible inhibition of human Cathepsin L assessed as second order rate constant using Cbz-Phe-Arg-AMC as fluorogenic substrate by fluorometric assay
Target sequence in this assay (P07711 114-333 limits assumed): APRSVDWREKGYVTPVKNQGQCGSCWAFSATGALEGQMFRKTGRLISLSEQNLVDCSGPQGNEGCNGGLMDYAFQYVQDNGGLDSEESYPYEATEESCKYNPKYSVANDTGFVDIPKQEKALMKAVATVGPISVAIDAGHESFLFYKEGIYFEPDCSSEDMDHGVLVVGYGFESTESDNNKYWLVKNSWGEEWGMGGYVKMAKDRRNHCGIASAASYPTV

Cathepsin B [4] = target: T3, Cathepsin B (Homo sapiens, UniProt P07858); assay: Irreversible inhibition of human Cathepsin B assessed as inhibition constant using Cbz-Phe-Arg-AMC as fluorogenic substrate by fluorometric assay
Cathepsin B [5] = target: T3, Cathepsin B; assay: Irreversible inhibition of human Cathepsin B assessed as second order rate constant using Cbz-Phe-Arg-AMC as fluorogenic substrate by fluorometric assay
[6] = target: Genome polyprotein (dengue virus type 2) (UniProt P29990); assay: Inhibition of Dengue virus NS2B-NS3 protease at 11 uM using Boc-Gly-Arg-Arg-AMC as fluorogenic substrate by fluorometric assay
[7] = target: Rhodesain (Trypanosoma brucei rhodesiense) (UniProt Q95PM0); assay: Irreversible inhibition of Trypanosoma brucei rhodesiense rhodesain assessed as Kinact using Cbz-Phe-Arg-AMC as fluorogenic substrate by fluorometric assay
Cathepsin B [8] = target: T3, Cathepsin B; assay: Irreversible inhibition of human Cathepsin B assessed as Kinact using Cbz-Phe-Arg-AMC as fluorogenic substrate by fluorometric assay
Procathepsin L [9] = target: T1, Procathepsin L; assay: Irreversible inhibition of human Cathepsin L assessed as Kinact using Cbz-Phe-Arg-AMC as fluorogenic substrate by fluorometric assay
Target sequence in this assay (P07711 114-333 limits assumed): as above

[10] = target: Rhodesain (Trypanosoma brucei rhodesiense) (UniProt Q95PM0); assay: Irreversible inhibition of Trypanosoma brucei rhodesiense rhodesain assessed as second order rate constant using Cbz-Phe-Arg-AMC as fluorogenic substrate by fluorometric assay
[11] = target: T2, 20S proteasome (Homo sapiens); assay: Inhibition of human 20S proteasome caspase-like activity at 11 uM using Cbz-Leu-Leu-Glu-AMC as fluorogenic substrate by fluorometric assay; type: protein-complex assay
[12] = tested on: Trypanosoma brucei brucei; assay: Antitrypanosomal activity against Trypanosoma brucei brucei BS449 assessed as luminescence incubated for 48 hrs by ATPlite assay; type: functional, organism-based; conditions: BS449, 48 h
[13] = Cytotoxicity against mouse J774.1 cells assessed as reduction in cell viability incubated for 48 hrs by MTT assay; type: toxicity, cell-based
Cathepsin B [14] = target: T3, Cathepsin B; assay: Inhibition of human Cathepsin B at 20 uM using Cbz-Phe-Arg-AMC as fluorogenic substrate by fluorometric assay
Procathepsin L [15] = target: T1, Procathepsin L; assay: Inhibition of human Cathepsin L at 20 uM using Cbz-Phe-Arg-AMC as fluorogenic substrate by fluorometric assay
Target sequence in this assay (P07711 114-333 limits assumed): as above

[16] = target: Rhodesain (Trypanosoma brucei rhodesiense) (UniProt Q95PM0); assay: Irreversible inhibition of Trypanosoma brucei rhodesiense rhodesain assessed as no recovery of enzyme activity preincubated for 30 mins followed by substrate addition using Cbz-Phe-Arg-AMC as fluorogenic substrate by fluorometric 100-fold dilution assay
[17] = target: Rhodesain (Trypanosoma brucei rhodesiense) (UniProt Q95PM0); assay: Reversible inhibition of Trypanosoma brucei rhodesiense rhodesain assessed as recovery of enzyme activity preincubated for 30 mins followed by substrate addition using Cbz-Phe-Arg-AMC as fluorogenic substrate by fluorometric 100-fold dilution assay

Sequence of Rhodesain (Q95PM0 whole entry): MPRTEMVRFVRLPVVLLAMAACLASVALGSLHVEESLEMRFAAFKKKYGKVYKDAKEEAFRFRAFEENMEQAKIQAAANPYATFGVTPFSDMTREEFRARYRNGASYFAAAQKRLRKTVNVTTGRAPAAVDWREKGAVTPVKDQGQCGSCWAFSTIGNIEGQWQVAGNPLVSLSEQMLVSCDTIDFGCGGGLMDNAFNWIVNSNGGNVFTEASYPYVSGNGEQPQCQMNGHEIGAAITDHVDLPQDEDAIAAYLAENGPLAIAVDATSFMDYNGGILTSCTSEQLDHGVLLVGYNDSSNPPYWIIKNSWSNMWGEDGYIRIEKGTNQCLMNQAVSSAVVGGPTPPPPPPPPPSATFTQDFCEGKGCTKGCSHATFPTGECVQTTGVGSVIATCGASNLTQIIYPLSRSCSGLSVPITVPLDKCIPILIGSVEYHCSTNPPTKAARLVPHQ
Sequence of Rhodesain (Trypanosoma brucei rhodesiense) (Q95PM0 1-450): as the sequence (Q95PM0 whole entry) above

O=C(NCc1ccccc1C(=O)N[C@H](/C=C/S(=O)(=O)Oc1ccccc1)CCc1ccccc1)c1cc(F)cc(F)c1
Ki (Procathepsin L [1]): 560 nM
Ki (Rhodesain): 15 nM
inhibition [2]: 14%
Second-order inactivation rate constant (Procathepsin L [3]): 3.92 10^3/M/s
Ki (Cathepsin B [4]): 760 nM
Kdiss (Cathepsin B [5]): 9.34 10^3/M/s
inhibition [6]: 35%
Kinact [7]: 0.0117 s⁻¹
Kinact (Cathepsin B [8]): 0.0071 s⁻¹
Kinact (Procathepsin L [9]): 0.0022 s⁻¹
Second-order inactivation rate constant (kinact/Ki) [10]: 7.8 10^5/M/s
inhibition [11]: 33%

O=C(NCc1ccccc1C(=O)N[C@H](/C=C/S(=O)(=O)c1ccccc1)CCc1ccccc1)c1cc(F)cc(F)c1
Ki (Procathepsin L [1]): 1890 nM
Ki (Rhodesain): 109 nM
Second-order inactivation rate constant (Procathepsin L [3]): 2.38 10^3/M/s
Ki (Cathepsin B [4]): 3040 nM
Kdiss (Cathepsin B [5]): 7.24 10^2/M/s
inhibition [6]: 11%
Kinact [7]: 0.0173 s⁻¹
Kinact (Cathepsin B [8]): 0.0022 s⁻¹
Kinact (Procathepsin L [9]): 0.0045 s⁻¹
Second-order inactivation rate constant (kinact/Ki) [10]: 1.59 10^5/M/s
inhibition [11]: 24%

O=C(NCc1ccccc1C(=O)N[C@H](/C=C/S(=O)(=O)Cc1ccccc1)CCc1ccccc1)c1ccccc1
Ki (Rhodesain): 389 nM
Kinact [7]: 0.0095 s⁻¹
Second-order inactivation rate constant (kinact/Ki) [10]: 0.24 10^5/M/s

O=C(O)c1cccc(C(=O)NCc2ccccc2C(=O)N[C@H](/C=C/S(=O)(=O)c2ccccc2)CCc2ccccc2)c1
Ki (Rhodesain): 7430 nM
EC50 [12]: 15000 nM
CC50 at 48 h [13]: > 100000 nM

CC(=O)NCc1ccccc1C(=O)N[C@H](/C=C/S(=O)(=O)c1ccccc1)CCc1ccccc1
Ki (Rhodesain): 4680 nM
EC50 [12]: 13500 nM
CC50 at 48 h [13]: 48000 nM

O=C(NCc1ccccc1C(=O)N[C@H](/C=C(\F)S(=O)(=O)Oc1ccccc1)CCc1ccccc1)c1cc(F)cc(F)c1
inhibition (Cathepsin B [14]): < 10%
Ki (Rhodesain): 638 nM
inhibition (Procathepsin L [15]): 14%

O=C(NCc1ccccc1C(=O)N[C@H](/C=C(\F)S(=O)(=O)Cc1ccccc1)CCc1ccccc1)c1ccc2c(c1)OCCO2
inhibition (Cathepsin B [14]): < 10%
Ki (Rhodesain): 491 nM
inhibition [16]: Active
inhibition [17]: Active
inhibition (Procathepsin L [15]): 15%

O=C(NCc1ccccc1C(=O)N[C@H](/C=C/S(=O)(=O)Oc1ccccc1)CCc1ccccc1)c1ccncc1
Ki (Procathepsin L [1]): 1150 nM
Ki (Rhodesain): 9 nM
EC50 [12]: 4200 nM
Ki (Cathepsin B [4]): 1010 nM
inhibition [6]: 26%
inhibition [11]: 41%

CNC(=O)Cc1ccccc1C(=O)N[C@H](/C=C/S(=O)(=O)c1ccccc1)CCc1ccccc1
Ki (Rhodesain): 470 nM
EC50 [12]: 13000 nM
CC50 at 48 h [13]: > 100000 nM

O=C(NCc1ccccc1C(=O)N[C@H](/C=C/S(=O)(=O)Cc1ccccc1)CCc1ccccc1)c1ccncc1
Ki (Rhodesain): 436 nM
Kinact [7]: 0.006 s⁻¹
Second-order inactivation rate constant (kinact/Ki) [10]: 0.14 10^5/M/s

O=C(NCc1ccccc1C(=O)N[C@H](/C=C/S(=O)(=O)Oc1ccccc1)CCc1ccccc1)c1ccc2c(c1)OCCO2
Ki (Procathepsin L [1]): 310 nM
Ki (Rhodesain): 10 nM
inhibition [16]: Active
inhibition [2]: 12%
Second-order inactivation rate constant (Procathepsin L [3]): 3.34 10^4/M/s
Ki (Cathepsin B [4]): 800 nM
Kdiss (Cathepsin B [5]): 1.64 10^4/M/s
inhibition [6]: 31%
Kinact [7]: 0.0079 s⁻¹
Kinact (Cathepsin B [8]): 0.013 s⁻¹
Kinact (Procathepsin L [9]): 0.0104 s⁻¹
Second-order inactivation rate constant (kinact/Ki) [10]: 7.9 10^5/M/s
inhibition [11]: 43%

O=C(Cc1ccccc1C(=O)N[C@H](/C=C/S(=O)(=O)c1ccccc1)CCc1ccccc1)Nc1cccc(C(=O)O)c1
Ki (Rhodesain): 17600 nM
EC50 [12]: > 40000 nM

O=C(NCc1ccccc1C(=O)N[C@H](/C=C(\F)S(=O)(=O)c1ccccc1)CCc1ccccc1)c1ccncc1
Ki (Procathepsin L [1]): 14100 nM
inhibition (Cathepsin B [14]): < 10%
Ki (Rhodesain): 430 nM

O=C(NCc1ccccc1C(=O)N[C@H](/C=C(\F)S(=O)(=O)c1ccccc1)CCc1ccccc1)c1cc(F)cc(F)c1
Ki (Rhodesain): 601 nM

O=C(NCc1ccccc1C(=O)N[C@H](/C=C/S(=O)(=O)c1ccccc1)CCc1ccccc1)c1cccc(O)c1
Ki (Rhodesain): 651 nM
EC50 [12]: 3300 nM
CC50 at 48 h [13]: 36000 nM

O=C(NCc1ccccc1C(=O)N[C@H](/C=C(\F)S(=O)(=O)c1ccccc1)CCc1ccccc1)c1ccccc1
Ki (Procathepsin L [1]): 8800 nM
inhibition (Cathepsin B [14]): < 10%
Ki (Rhodesain): 568 nM
EC50 [12]: 3300 nM
CC50 at 48 h [13]: 43000 nM
inhibition [11]: 25%

CN1CCN(C(=O)N[C@@H](Cc2ccccc2)C(=O)N[C@H](/C=C/S(=O)(=O)c2ccccc2)CCc2ccccc2)CC1 [K-777]
inhibition [16]: Active
CC50 at 48 h [13]: 41000 nM

CC(=O)N(Cc1ccccc1C(=O)N[C@H](/C=C/S(=O)(=O)c1ccccc1)CCc1ccccc1)C(C)=O
Ki (Rhodesain): 940 nM
EC50 [12]: 5700 nM
CC50 at 48 h [13]: 36000 nM

O=C(NCc1ccccc1C(=O)N[C@H](/C=C(\F)S(=O)(=O)Cc1ccccc1)CCc1ccccc1)c1ccncc1
Ki (Rhodesain): 840 nM

O=C(NCc1ccccc1C(=O)N[C@H](/C=C/S(=O)(=O)c1ccccc1)CCc1ccccc1)c1ccc2c(c1)OCCO2
inhibition (Cathepsin B [14]): < 10%
Ki (Rhodesain): 504 nM
Kinact [7]: 0.0005 s⁻¹
inhibition (Procathepsin L [15]): 41%
Second-order inactivation rate constant (kinact/Ki) [10]: 0.01 10^5/M/s

CN1CCN(C(=O)NCc2ccccc2C(=O)N[C@H](/C=C/S(=O)(=O)Cc2ccccc2)CCc2ccccc2)CC1
Ki (Rhodesain): 318 nM
Kinact [7]: 0.005 s⁻¹
Second-order inactivation rate constant (kinact/Ki) [10]: 0.16 10^5/M/s

O=C(NCc1ccccc1C(=O)N[C@H](/C=C/S(=O)(=O)Cc1ccccc1)CCc1ccccc1)c1cc(F)cc(F)c1
inhibition (Cathepsin B [14]): < 10%
Ki (Rhodesain): 356 nM
Kinact [7]: 0.0125 s⁻¹
inhibition (Procathepsin L [15]): 31%
Second-order inactivation rate constant (kinact/Ki) [10]: 0.35 10^5/M/s

O=C(NCc1ccccc1C(=O)N[C@H](/C=C/S(=O)(=O)c1ccccc1)CCc1ccccc1)c1ccncc1
Ki (Procathepsin L [1]): 2250 nM
inhibition (Cathepsin B [14]): 44%
Ki (Rhodesain): 107 nM
Second-order inactivation rate constant (Procathepsin L [3]): 1.16 10^3/M/s
Kinact [7]: 0.0046 s⁻¹
Kinact (Procathepsin L [9]): 0.0026 s⁻¹
Second-order inactivation rate constant (kinact/Ki) [10]: 0.43 10^5/M/s

O=C(Cc1ccccc1C(=O)N[C@H](/C=C/S(=O)(=O)c1ccccc1)CCc1ccccc1)Nc1ccc(C(=O)O)cc1
Ki (Rhodesain): 290 nM
EC50 [12]: 28000 nM

O=C(NCc1ccccc1C(=O)N[C@H](/C=C/S(=O)(=O)Cc1ccccc1)CCc1ccccc1)c1ccc2c(c1)OCCO2
inhibition (Cathepsin B [14]): < 10%
Ki (Rhodesain): 59 nM
Kinact [7]: 0.0038 s⁻¹
inhibition (Procathepsin L [15]): 39%
Second-order inactivation rate constant (kinact/Ki) [10]: 0.64 10^5/M/s

O=C(NCc1ccccc1C(=O)N[C@H](/C=C(\F)S(=O)(=O)Cc1ccccc1)CCc1ccccc1)c1cc(F)cc(F)c1
Ki (Rhodesain): 608 nM

O=C(NCc1ccccc1C(=O)N[C@H](/C=C(\F)S(=O)(=O)Oc1ccccc1)CCc1ccccc1)c1ccncc1
Ki (Rhodesain): 916 nM
EC50 [12]: 1800 nM
CC50 at 48 h [13]: > 100000 nM

O=C(O)c1ccc(C(=O)NCc2ccccc2C(=O)N[C@H](/C=C/S(=O)(=O)c2ccccc2)CCc2ccccc2)cc1
Ki (Rhodesain): 4030 nM
Kinact [7]: 0.0031 s⁻¹
Second-order inactivation rate constant (kinact/Ki) [10]: 0.0077 10^5/M/s
